Results from ChEMBL document CHEMBL4616620, “Discovery and SAR of aryl hydroxy pyrimidinones as potent small molecule agonists of the GPCR APJ” (Bioorg Med Chem Lett, 2020).
pEC50, pIC50: −log10 of the molar value. Values joined by “and” are separate entries in the source; they are usually repeats but may differ in a detail not shown here. Equal values may be shown once.

Key:
Apelin receptor = target: T1, Apelin receptor (Homo sapiens, UniProt P35414); assay: Agonist activity at human APJ expressed in HEK293 cells assessed as inhibition of forskolin-stimulated cAMP production; format: functional, cell-based
T1 sequence (P35414 whole entry): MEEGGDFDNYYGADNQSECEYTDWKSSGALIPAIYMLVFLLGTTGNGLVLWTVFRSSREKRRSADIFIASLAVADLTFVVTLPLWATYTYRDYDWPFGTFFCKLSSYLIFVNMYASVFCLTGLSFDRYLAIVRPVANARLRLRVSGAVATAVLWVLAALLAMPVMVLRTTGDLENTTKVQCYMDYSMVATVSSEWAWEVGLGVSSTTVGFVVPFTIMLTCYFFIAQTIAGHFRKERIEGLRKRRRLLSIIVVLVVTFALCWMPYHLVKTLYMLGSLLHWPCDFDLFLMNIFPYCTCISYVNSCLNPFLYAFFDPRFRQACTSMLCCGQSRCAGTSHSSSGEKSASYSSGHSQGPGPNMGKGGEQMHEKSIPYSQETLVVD

[1] = target: Voltage-gated inwardly rectifying potassium channel KCNH2 (Homo sapiens, UniProt Q12809); assay: Inhibition of human ERG
[2] = target: CYP450 (isoform not stated) (Homo sapiens, UniProt P04798+P05177+P05181+P08684+P10632+P10635+P11509+P11712+P13584+P20813+P20815+P20853+P24462+P24903+P33260+P33261+P51589+P78329+P98187+Q02928+Q08477+Q16678+Q16696+Q5TCH4+Q6VVX0+Q7Z449+Q8TAV3+Q96SQ9+Q9HB55); assay: Inhibition of CYP450 (unknown origin); format: ADME, protein assay
[3] = AUC in mouse at 10 mg/kg, po; format: ADME, organism-based; conditions: in vivo
[4] = target: T2, Nuclear receptor subfamily 1 group I member 2 (Homo sapiens, UniProt O75469); assay: Agonist activity at PXR (unknown origin)
T2 sequence (O75469 whole entry): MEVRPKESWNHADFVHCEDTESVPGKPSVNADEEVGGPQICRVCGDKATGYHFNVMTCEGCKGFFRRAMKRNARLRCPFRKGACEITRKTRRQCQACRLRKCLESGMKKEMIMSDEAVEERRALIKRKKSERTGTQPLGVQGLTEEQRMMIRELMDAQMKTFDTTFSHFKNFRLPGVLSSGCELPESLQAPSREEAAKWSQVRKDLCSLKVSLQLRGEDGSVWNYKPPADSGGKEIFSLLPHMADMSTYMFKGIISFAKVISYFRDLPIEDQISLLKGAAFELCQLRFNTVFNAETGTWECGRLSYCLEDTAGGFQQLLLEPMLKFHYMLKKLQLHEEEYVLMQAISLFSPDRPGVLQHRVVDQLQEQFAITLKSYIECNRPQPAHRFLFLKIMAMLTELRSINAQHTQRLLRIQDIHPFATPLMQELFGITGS

[5] = Cmax in mouse at 10 mg/kg, po; format: ADME, organism-based; parameters: dose 10 mg/kg, route oral; conditions: in vivo
[6] = Permeability of compound at pH 7.4 by PAMPA assay; format: ADME; conditions: read-out: permeability
[7] = Permeability of compound at pH 5.5 by PAMPA assay; format: ADME; conditions: read-out: permeability
[8] = Tmax in mouse at 10 mg/kg, po; format: ADME, organism-based; conditions: in vivo
[9] = target: T3, Apelin receptor (Homo sapiens) (UniProt P35414); assay: Agonist activity at human APJ expressed in HEK293 cells assessed as inhibition of forskolin-stimulated cAMP production at 10 uM relative to control; format: functional, cell-based
T3 sequence (whole entry): T1 sequence (P35414 whole entry)

Voltage-gated inwardly rectifying potassium channel KCNH2, sequence (Q12809 whole entry, canonical isoform): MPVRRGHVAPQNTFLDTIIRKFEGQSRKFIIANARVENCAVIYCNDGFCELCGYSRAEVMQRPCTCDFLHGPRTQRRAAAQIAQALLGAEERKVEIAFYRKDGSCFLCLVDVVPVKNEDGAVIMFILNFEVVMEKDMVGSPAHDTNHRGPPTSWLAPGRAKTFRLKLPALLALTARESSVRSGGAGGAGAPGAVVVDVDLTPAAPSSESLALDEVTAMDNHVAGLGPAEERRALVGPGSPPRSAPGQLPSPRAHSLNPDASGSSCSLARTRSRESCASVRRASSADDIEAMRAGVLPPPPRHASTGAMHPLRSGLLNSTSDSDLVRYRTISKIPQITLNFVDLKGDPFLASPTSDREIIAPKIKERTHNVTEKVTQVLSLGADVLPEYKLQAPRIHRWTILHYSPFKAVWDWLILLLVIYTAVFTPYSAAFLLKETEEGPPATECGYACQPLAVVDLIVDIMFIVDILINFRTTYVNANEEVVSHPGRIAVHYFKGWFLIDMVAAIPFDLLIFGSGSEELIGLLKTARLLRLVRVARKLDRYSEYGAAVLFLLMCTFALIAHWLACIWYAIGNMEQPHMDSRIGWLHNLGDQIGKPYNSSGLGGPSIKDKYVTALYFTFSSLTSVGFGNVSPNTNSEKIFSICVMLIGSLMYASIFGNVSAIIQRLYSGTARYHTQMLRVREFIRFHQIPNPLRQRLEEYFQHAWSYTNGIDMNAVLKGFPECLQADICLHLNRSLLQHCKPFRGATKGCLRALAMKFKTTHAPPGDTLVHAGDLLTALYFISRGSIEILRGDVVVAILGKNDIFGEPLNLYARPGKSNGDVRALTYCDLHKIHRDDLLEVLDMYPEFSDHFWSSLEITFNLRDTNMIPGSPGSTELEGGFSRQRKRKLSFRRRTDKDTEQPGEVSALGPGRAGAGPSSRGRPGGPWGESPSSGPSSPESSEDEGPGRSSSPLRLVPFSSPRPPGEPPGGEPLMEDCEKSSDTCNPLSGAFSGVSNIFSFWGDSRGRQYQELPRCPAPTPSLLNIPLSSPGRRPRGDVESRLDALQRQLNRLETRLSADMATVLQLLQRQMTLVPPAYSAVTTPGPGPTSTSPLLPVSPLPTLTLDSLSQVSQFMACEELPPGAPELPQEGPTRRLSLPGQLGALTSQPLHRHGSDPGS

Compound	pEC50 (Apelin receptor)	further results
CCCSc1nc(=O)cc(O)n1-c1ccccc1Cl	6.60	–
CCCSc1nc(=O)cc(O)n1-c1ccc(C)cc1	6.59	–
CCCSc1nc(=O)c(C)c(O)n1-c1ccccc1OC	5.85	–
CCCSc1nc(=O)c(CC)c(O)n1-c1ccccc1OC	6.07	–
CCCSc1nc(=O)c(C(C)C)c(O)n1-c1ccccc1OC	6.35	–
CCCCc1c(O)n(-c2ccccc2OC)c(SCCC)nc1=O	5.77	–
C=CCc1c(O)n(-c2ccccc2OC)c(SCCC)nc1=O	6.24	–
CCCCc1nc(=O)cc(O)n1-c1ccccc1OC	7.66 and 7.62 and 7.51	–
COc1ccccc1-n1c(O)cc(=O)nc1SC(C)C	7.64	–
CCCSc1nc(=O)cc(O)n1-c1ccccc1OC	7.19 and 7.40 and 6.80	pIC50 [1]: < 4.10; pIC50 [2]: < 4.70; AUC [3]: 29 µM·h; pEC50 [4]: < 4.30; Cmax [5]: 4.4 µM; Papp [6]: 13.1 ×10⁻⁶ cm/s; Papp [7]: 23 ×10⁻⁶ cm/s; Tmax [8]: 4 h
CCCSc1nc(=O)cc(O)n1-c1ccccc1F	6.80	–
CCCSc1nc(=O)cc(O)n1-c1ccccc1OCC	7.00	–
CCCCc1nc(=O)cc(O)n1-c1c(C)cccc1OC	8.30 and 8.52 and 8.70	pIC50 [1]: < 4.10; pIC50 [2]: < 4.70; AUC [3]: 10.2 µM·h; pEC50 [4]: < 4.85; Cmax [5]: 1.68 µM; Papp [6]: 1 ×10⁻⁶ cm/s; Papp [7]: 1.2 ×10⁻⁶ cm/s; Tmax [8]: 4 h
CCCCSc1nc(=O)cc(O)n1-c1ccccc1OC	6.70	–
CCCSc1nc(=O)cc(O)n1-c1cccc(OC)c1	6.03	–
COc1ccccc1-n1c(O)cc(=O)nc1SCC(C)C	7.11	–
CCCSc1nc(=O)cc(O)n1-c1cccc(C)c1	6.54	–
CCCSc1nc(=O)c(Cc2ccccc2)c(O)n1-c1ccccc1OC	6.47	–
C=CCn1c(O)cc(=O)nc1SC(C)CC (stereo not given)	5.36	Efficacy [9]: 100%
CCCSc1nc(=O)cc(O)n1-c1ccccc1CC	6.85	–
CCCSc1nc(=O)cc(O)n1-c1ccccc1C(F)(F)F	7.05	–
CCCSc1nc(=O)cc(O)n1-c1ccc(OC)cc1	6.17	–
CCCCc1nc(=O)c(Cc2ccc(OC)cc2)c(O)n1-c1c(OC)cccc1OC	7.89	–
CCCSc1nc(=O)cc(O)n1-c1ccccc1	5.30	Efficacy [9]: 100%
CCCCc1nc(=O)cc(O)n1-c1c(OC)cccc1OC	7.96	–
CCCSc1nc(=O)cc(O)n1-c1ccccc1Br	6.81	–
CCCSc1nc(=O)cc(O)n1-c1ccccc1C	7.00	–
